Patent US8633207B2, “Quinazoline compounds and methods of use thereof” (Ambit Biosciences Corporation, priority 2010, dated 2014)

Key:
JAK2 = molecular target: T1, JAK2 (Homo sapiens, UniProt O60674); assay: Competition binding assay to determine Kd against JAK kinases: JAK2
T1 construct: made in house; host or cells: T7 phage display, or HEK-293 cells (alternative)
Excerpt: (§1) Competition Binding Assay to Determine Binding Constants (Kd) of the Compounds Against JAK Kinases
(§2) Competition binding assays used herein were developed, validated and performed as described in Fabian et al., Nature Biotechnology 2005, 23, 329-336. Kinases were produced as fusions to T7 phage (See, Fabian et al. or WO04/015142) or alternatively, the kinases were expressed in HEK-293 cells and subsequently tagged with DNA for PCR detection (See, WO08/005,310). For the binding assays, streptavidin-coated magnetic beads were treated with biotinylated affinity ligands for 30 min at rt to generate affinity resins. The liganded beads were blocked with excess biotin and washed with blocking buffer (SeaBlock (Pierce), 1% BSA, 0.05% Tween 20, 1 mM DTT) to remove unbound ligand and to reduce non-specific binding. Binding reactions were assembled by combining kinase, liganded affinity beads, and test compounds in 1× binding buffer (20% SeaBlock, 0.17×PBS, 0.05% Tween 20, 6 mM DTT). Test compounds were prepared as 100× stocks in DMSO and rapidly diluted into the aqueous environment. DMSO was added to control assays lacking a test compound. Primary screen interactions were performed in polypropylene 384-well plates in a final volume of 34 μL, while Kd determinations were performed in polystyrene 96-well plates in a final volume of 135 μL. The assay plates were incubated at room temperature with shaking for 1 hour, long enough for binding reactions to reach equilibrium, and the affinity beads were washed extensively with wash buffer (1×PBS, 0.05% Tween 20) to remove unbound protein. The beads were then resuspended in elution buffer (1×PBS, 0.05% Tween 20, 2 μM non-biotinylated affinity ligand) and incubated at room temperature with shaking for 30 min. The kinase concentration in the eluates was measured by quantitative PCR. Each kinase was tested individually against each compound. Kds were determined using eleven serial threefold dilutions. A selectivity score, which is a quantitative measure of selectivity of a compound against a panel of enzymes, may be calculated for a compound by dividing the number of enzymes for which a compound meets a set criteria, (for example, a binding constant of 100 nM or less), by the total number of enzymes tested.

[1] = test system: GM-CSFR/JAK2/STAT5 pathway; assay: csTF-1 cell-based reporter assay; settings: Homo sapiens; csTF-1 cells, GM-CSF at 2 ng/mL, 4 hours; read-out: Cell Assay: CS TF-1 reporter assay IC50
Description: csTF-1 Cell-Based Reporter Assay
csTF-1 cells are derived from the human erythroleukemia cell line that is growth dependent on GM-CSF and has an intact GM-CSFR/JAK2/STAT5 pathway. The cell line contains stably integrated beta-lactamase reporter gene under the control of the […] (irf 1) response element recognized by the activated transcription factor STATS. csTF-1 cells (Invitrogen K1219) were washed with assay media (97% OPTIMEM/0.5% dialyzed FBS/0.1 mM NEAA/1 mM Na pyr/P/S) and seeded in the same media at 5×10^5 cell/mL in T150 flask. After 16 hour incubation, cells were seeded at 2×10^5 cell/well in 50 μl volume, into Costar, clear bottom, 96-well assay plates. Serial dilutions of compounds were added to the plates with final DMSO concentration at 0.5% and GM-CSF at 2 ng/mL and the plates were then incubated at […] and 5% CO2 for 4 hours. The plates were brought to room temperature before adding Substrate Mixture according to manufacturer's protocol (Invitrogen, Catalog #K1085). The assay plates containing the substrate mixture were incubated in the dark at room temperature for 2 hours. Blue and green fluorescence was measured with excitation at 409 nm and emission at 460 nm (for blue) and excitation at 409 nm and emission at 530 nm (for green) using Spectra Max Gemini EM.

JAK3 = molecular target: T2, JAK3 (Homo sapiens, UniProt P52333); assay: Competition binding assay to determine Kd against JAK kinases: JAK3
T2 construct: made in house; host or cells: T7 phage display, or HEK-293 cells (alternative)
T2 sequence (P52333 1-1124): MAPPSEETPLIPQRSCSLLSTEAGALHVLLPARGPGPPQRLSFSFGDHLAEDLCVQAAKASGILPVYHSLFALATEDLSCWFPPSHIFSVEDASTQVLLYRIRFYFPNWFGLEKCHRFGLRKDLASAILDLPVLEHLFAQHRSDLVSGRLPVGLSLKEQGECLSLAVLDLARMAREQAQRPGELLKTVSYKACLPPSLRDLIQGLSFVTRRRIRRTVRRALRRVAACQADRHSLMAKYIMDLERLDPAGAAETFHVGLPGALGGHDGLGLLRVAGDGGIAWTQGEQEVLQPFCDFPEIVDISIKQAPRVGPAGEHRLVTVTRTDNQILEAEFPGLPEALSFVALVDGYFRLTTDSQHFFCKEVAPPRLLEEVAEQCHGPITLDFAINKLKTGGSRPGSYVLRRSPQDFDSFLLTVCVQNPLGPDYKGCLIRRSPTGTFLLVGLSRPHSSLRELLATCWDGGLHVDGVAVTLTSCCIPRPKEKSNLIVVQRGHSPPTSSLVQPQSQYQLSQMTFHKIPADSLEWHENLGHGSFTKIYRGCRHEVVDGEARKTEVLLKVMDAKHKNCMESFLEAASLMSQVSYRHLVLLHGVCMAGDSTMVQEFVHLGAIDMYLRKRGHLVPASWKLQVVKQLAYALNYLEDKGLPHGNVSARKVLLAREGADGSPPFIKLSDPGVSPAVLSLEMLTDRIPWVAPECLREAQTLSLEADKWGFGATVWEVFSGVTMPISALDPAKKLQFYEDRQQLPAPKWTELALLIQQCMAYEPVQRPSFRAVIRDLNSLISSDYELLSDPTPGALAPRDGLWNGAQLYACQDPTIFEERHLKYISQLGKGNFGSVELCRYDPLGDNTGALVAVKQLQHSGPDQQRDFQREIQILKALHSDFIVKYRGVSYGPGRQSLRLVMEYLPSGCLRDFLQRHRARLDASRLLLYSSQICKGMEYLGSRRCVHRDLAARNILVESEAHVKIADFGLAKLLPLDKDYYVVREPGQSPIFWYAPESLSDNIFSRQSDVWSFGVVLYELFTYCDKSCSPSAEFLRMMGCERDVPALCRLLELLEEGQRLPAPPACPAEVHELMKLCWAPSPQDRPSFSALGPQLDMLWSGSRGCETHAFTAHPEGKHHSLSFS
Excerpt: as §1, §2

Tyk2 = molecular target: T3, Tyk2 (Homo sapiens, UniProt P29597); assay: Competition binding assay to determine Kd against JAK kinases: Tyk2
T3 construct: made in house; host or cells: T7 phage display, or HEK-293 cells (alternative)
Excerpt: as §1, §2

T1 sequence (O60674 whole entry): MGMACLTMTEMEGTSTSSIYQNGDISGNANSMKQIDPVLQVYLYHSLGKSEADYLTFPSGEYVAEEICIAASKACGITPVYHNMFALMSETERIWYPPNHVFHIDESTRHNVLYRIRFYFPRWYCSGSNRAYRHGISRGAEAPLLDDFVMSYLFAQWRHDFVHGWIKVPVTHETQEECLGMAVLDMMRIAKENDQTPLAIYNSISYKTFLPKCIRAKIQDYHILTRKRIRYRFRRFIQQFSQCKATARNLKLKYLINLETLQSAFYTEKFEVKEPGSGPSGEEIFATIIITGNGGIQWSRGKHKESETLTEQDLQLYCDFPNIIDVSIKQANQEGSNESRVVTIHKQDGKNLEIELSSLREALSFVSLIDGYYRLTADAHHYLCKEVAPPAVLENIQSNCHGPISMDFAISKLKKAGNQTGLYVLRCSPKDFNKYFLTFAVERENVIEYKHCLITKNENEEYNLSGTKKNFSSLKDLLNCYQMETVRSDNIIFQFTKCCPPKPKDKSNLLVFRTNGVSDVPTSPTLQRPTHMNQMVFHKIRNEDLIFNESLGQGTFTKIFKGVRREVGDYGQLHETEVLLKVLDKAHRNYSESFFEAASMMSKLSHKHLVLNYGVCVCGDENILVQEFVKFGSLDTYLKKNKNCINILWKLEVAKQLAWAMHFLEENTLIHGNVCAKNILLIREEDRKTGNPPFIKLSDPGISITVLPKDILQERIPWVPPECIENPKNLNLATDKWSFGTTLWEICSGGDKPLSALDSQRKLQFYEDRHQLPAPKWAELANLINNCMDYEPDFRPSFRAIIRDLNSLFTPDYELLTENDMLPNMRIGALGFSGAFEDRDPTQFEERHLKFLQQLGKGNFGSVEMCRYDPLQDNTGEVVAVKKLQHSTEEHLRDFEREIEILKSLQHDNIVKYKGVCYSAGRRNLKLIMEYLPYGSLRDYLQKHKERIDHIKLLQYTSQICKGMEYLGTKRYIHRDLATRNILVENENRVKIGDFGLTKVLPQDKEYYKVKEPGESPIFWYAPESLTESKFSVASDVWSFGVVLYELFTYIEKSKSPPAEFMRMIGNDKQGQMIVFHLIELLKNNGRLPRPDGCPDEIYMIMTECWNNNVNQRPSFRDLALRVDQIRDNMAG
T3 sequence (P29597 whole entry): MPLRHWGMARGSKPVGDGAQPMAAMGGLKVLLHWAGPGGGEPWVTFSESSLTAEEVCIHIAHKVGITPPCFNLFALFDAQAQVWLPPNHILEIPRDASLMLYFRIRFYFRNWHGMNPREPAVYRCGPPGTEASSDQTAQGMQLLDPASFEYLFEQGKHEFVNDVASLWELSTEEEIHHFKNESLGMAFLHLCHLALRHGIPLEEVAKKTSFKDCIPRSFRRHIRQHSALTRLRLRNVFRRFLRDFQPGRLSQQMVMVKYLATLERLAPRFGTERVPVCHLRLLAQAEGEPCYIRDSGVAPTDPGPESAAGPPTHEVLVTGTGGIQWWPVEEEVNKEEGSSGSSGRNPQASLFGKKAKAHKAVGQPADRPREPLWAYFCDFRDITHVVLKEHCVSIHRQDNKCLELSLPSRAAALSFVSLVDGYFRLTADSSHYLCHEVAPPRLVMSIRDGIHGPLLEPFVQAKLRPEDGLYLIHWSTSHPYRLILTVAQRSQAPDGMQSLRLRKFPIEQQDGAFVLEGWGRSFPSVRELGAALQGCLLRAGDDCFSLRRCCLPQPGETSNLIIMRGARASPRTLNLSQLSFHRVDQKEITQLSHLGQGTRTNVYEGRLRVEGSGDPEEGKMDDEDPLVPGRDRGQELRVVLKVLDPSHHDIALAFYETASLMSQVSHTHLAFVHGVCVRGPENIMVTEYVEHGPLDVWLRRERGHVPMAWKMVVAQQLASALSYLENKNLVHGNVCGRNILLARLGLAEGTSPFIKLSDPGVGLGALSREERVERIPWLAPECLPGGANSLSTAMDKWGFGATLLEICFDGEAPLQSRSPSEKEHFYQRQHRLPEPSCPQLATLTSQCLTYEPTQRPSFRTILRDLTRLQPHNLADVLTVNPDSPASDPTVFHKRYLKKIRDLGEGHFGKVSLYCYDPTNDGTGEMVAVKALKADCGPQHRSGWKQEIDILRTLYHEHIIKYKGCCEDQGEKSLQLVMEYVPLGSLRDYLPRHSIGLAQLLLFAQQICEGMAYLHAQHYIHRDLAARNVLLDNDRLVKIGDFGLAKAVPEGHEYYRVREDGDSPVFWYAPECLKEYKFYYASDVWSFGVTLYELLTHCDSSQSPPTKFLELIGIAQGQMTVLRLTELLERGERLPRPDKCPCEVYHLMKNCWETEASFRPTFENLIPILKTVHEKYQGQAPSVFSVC

Structure (SMILES)	Kd (JAK2) [nM]	IC50 [1] [nM]	Kd (JAK3) [nM]	Kd (Tyk2) [nM]
Cc1cc(Nc2nc(C(=O)c3ccc(F)cn3)nc3ccccc23)n[nH]1 [Example 1, (5-fluoropyridin-2-yl)(4-(5-methyl-1H-pyrazol-3-ylamino)quinazolin-2-yl)methanone]	1 to 10	≤ 100	10 to 100	≤ 10
Cc1cc(Nc2nc(C(F)(F)c3ccc(F)cn3)nc3ccccc23)n[nH]1 [Example 2, 2-(difluoro(5-fluoropyridin-2-yl)methyl)-N-(5-methyl-1H-pyrazol-3-yl)quinazolin-4-amine]	≤ 1	≤ 100	≤ 10	≤ 10
Cc1cc(Nc2nc(C(F)(F)c3ncc(F)cn3)nc3ccccc23)n[nH]1 [Example 3, 2-(difluoro(5-fluoropyrimidin-2-yl)methyl)-N-(5-methyl-1H-pyrazol-3-yl)quinazolin-4-amine]	≤ 1	≤ 100	10 to 100	≤ 10
Fc1ccc(C(F)(F)c2nc(Nc3cc[nH]n3)c3ccccc3n2)nc1 [Example 4, 2-(difluoro(5-fluoropyridin-2-yl)methyl)-N-(1H-pyrazol-3-yl)quinazolin-4-amine]	≤ 1	≤ 100	10 to 100	≤ 10
COc1cc(Nc2nc(C(F)(F)c3ccc(F)cn3)nc3ccccc23)n[nH]1 [Example 5, 2-(difluoro(5-fluoropyridin-2-yl)methyl)-N-(5-methoxy-1H-pyrazol-3-yl)quinazolin-4-amine]	≤ 1	100 to 500	10 to 100	≤ 10
COc1ccc2c(Nc3cc(C)[nH]n3)nc(C(F)(F)c3ccc(F)cn3)nc2c1 [Example 6, 2-(difluoro(5-fluoropyridin-2-yl)methyl)-7-methoxy-N-(5-methyl-1H-pyrazol-3-yl)quinazolin-4-amine]	≤ 1	≤ 100	≤ 10	≤ 10
Cc1cc(Nc2nc(C(F)(F)c3ccc(F)cn3)nc3cc(Br)ccc23)n[nH]1 [Example 7, 7-bromo-2-(difluoro(5-fluoropyridin-2-yl)methyl)-N-(5-methyl-1H-pyrazol-3-yl)quinazolin-4-amine]	≤ 1	≤ 100	≤ 10	≤ 10
Cc1cc(Nc2nc(C(F)(F)c3ccc(F)cn3)nc3cc(C#N)ccc23)n[nH]1 [Example 8, 2-(difluoro(5-fluoropyridin-2-yl)methyl)-4-(5-methyl-1H-pyrazol-3-ylamino)quinazoline-7-carbonitrile]	1 to 10	≤ 100	10 to 100	≤ 10
Cc1cc(Nc2nc(C(F)(F)c3ccc(F)cn3)nc3cc(C4CC4)ccc23)n[nH]1 [Example 9, 7-cyclopropyl-2-(difluoro(5-fluoropyridin-2-yl)methyl)-N-(5-methyl-1H-pyrazol-3-yl)quinazolin-4-amine]	≤ 1	≤ 100	≤ 10	≤ 10

Further lines, results first:

Kd (JAK2) [nM]	IC50 [1] [nM]	Kd (JAK3) [nM]	Kd (Tyk2) [nM]	Structure (SMILES)
≤ 1	≤ 100	≤ 10	≤ 10	Cc1cc(Nc2nc(C(F)(F)c3ccc(F)cn3)nc3c(C)cccc23)n[nH]1 [Example 10, 2-(Difluoro(5-fluoropyridin-2-yl)methyl)-8-methyl-N-(5-methyl-1H-pyrazol-3-yl)quinazolin-4-amine]
≤ 1	100 to 500	10 to 100	≤ 10	Cc1cc(Nc2nc(C(F)(F)c3ccc(F)cn3)nc3c(Br)cccc23)n[nH]1 [Example 11, 8-bromo-2-(difluoro(5-fluoropyridin-2-yl)methyl)-N-(5-methyl-1H-pyrazol-3-yl)quinazolin-4-amine]
≤ 1	≤ 100	≤ 10	≤ 10	Cc1cc(Nc2nc(C(F)(F)c3ccc(F)cn3)nc3c(F)cccc23)n[nH]1 [Example 12, 2-(difluoro(5-fluoropyridin-2-yl)methyl)-8-fluoro-N-(3-methyl-1H-pyrazol-5-yl)quinazolin-4-amine]
≤ 1	≤ 100	≤ 10	≤ 10	Cc1cc(Nc2nc(C(F)(F)c3ccc(F)cn3)nc3c(Cl)cccc23)n[nH]1 [Example 13, 8-chloro-2-(difluoro(5-fluoropyridin-2-yl)methyl)-N-(5-methyl-1H-pyrazol-3-yl)quinazolin-4-amine]
≤ 1	≤ 100	≤ 10	≤ 10	Cc1ccc2c(Nc3cc(C)[nH]n3)nc(C(F)(F)c3ccc(F)cn3)nc2c1 [Example 14, 2-(difluoro(5-fluoropyridin-2-yl)methyl)-7-methyl-N-(5-methyl-1H-pyrazol-3-yl)quinazolin-4-amine]
≤ 1	≤ 100	10 to 100	≤ 10	Cc1cc(Nc2nc(C(F)(F)c3ccc(F)cn3)nc3cc(F)ccc23)n[nH]1 [Example 15, 2-(difluoro(5-fluoropyridin-2-yl)methyl)-7-fluoro-N-(5-methyl-1H-pyrazol-3-yl)quinazolin-4-amine]
≤ 1	≤ 100	10 to 100	≤ 10	Cc1cc(Nc2nc(C(F)(F)c3ccc(F)cn3)nc3cc(Cl)ccc23)n[nH]1 [Example 16, 7-chloro-2-(difluoro(5-fluoropyridin-2-yl)methyl)-N-(5-methyl-1H-pyrazol-3-yl)quinazolin-4-amine]
≤ 1	–	≤ 10	≤ 10	COC(=O)c1cccc2c(Nc3cc(C)[nH]n3)nc(C(F)(F)c3ccc(F)cn3)nc12 [Example 47, methyl 2-(difluoro(5-fluoropyridin-2-yl)methyl)-4-((5-methyl-1H-pyrazol-3-yl)amino)quinazoline-8-carboxylate]
